Laboratory results from ChEMBL document CHEMBL4028802, “DILIrank: the largest reference drug list ranked by the risk for developing drug-induced liver injury in humans” (Drug Discov Today, 2016).
Non-standard residues stand in square brackets, D forms with d. Residues, ends and D or L forms follow the SMILES beside them. d(hArg(Et2)) = CCN=C(NCC)NCCCC[C@@H](N)C(=O)O; hArg(Et2) = CCN=C(NCC)NCCCC[C@H](N)C(=O)O; dPhe(4-Cl) = N[C@H](Cc1ccc(Cl)cc1)C(=O)O; d2Nal = N[C@H](Cc1ccc2ccccc2c1)C(=O)O; d3Pal = N[C@H](Cc1cccnc1)C(=O)O

Key:
Homo sapiens [1] = species on record: Homo sapiens; experiment: Liver toxicity in human assessed as induction of drug-induced liver injury by measuring severity class index
Homo sapiens [2] = species on record: Homo sapiens; experiment: Liver toxicity in human assessed as induction of drug-induced liver injury by measuring verified drug-induced liver injury concern status
Throughout, for DILI severity class: key of the grades not given here.

Structure (SMILES) | DILI_severity_class (Homo sapiens [1]) | DILI_Concern (Homo sapiens [2])
CO[C@H]1O[C@H](COS(=O)(=O)[O-])[C@@H](O[C@@H]2O[C@@H](C(=O)[O-])[C@@H](O[C@H]3O[C@H](COS(=O)(=O)[O-])[C@@H](O[C@@H]4O[C@H](C(=O)[O-])[C@@H](O[C@H]5O[C@H](COS(=O)(=O)[O-])[C@@H](O)[C@H](O)[C@H]5NS(=O)(=O)[O-])[C@H](O)[C@H]4O)[C@H](OS(=O)(=O)[O-])[C@H]3NS(=O)(=O)[O-])[C@H](O)[C@H]2OS(=O)(=O)[O-])[C@H](O)[C@H]1NS(=O)(=O)[O-].[Na+].[Na+].[Na+].[Na+].[Na+].[Na+].[Na+].[Na+].[Na+].[Na+] [FONDAPARINUX SODIUM] | 3 | Less-Dili-Concern
CC(C)CN(C[C@@H](OP(=O)(O)O)[C@H](Cc1ccccc1)NC(=O)O[C@H]1CCOC1)S(=O)(=O)c1ccc(N)cc1 [FOSAMPRENAVIR] | 3 | Ambiguous-Dili-Concern
C[C@@H](O[C@H]1OCCN(Cc2nc(O)n(P(=O)(O)O)n2)[C@H]1c1ccc(F)cc1)c1cc(C(F)(F)F)cc(C(F)(F)F)c1 [FOSAPREPITANT] | 3 | Ambiguous-Dili-Concern
O=C(O)P(=O)(O)O [FOSCARNET] | 3 | Ambiguous-Dili-Concern
C[C@@H]1O[C@@H]1P(=O)(O)O [FOSFOMYCIN] | 6 | Less-Dili-Concern
CCC(=O)O[C@@H](O[P@](=O)(CCCCc1ccccc1)CC(=O)N1C[C@H](C2CCCCC2)C[C@H]1C(=O)O)C(C)C [FOSINOPRIL] | 3 | Less-Dili-Concern
O=C1NC(c2ccccc2)(c2ccccc2)C(=O)N1COP(=O)(O)O [FOSPHENYTOIN] | 8 | Most-Dili-Concern
CC(C)c1cccc(C(C)C)c1OCOP(=O)(O)O [FOSPROPOFOL] | 0 | Less-Dili-Concern
CN[C@@H]1CCc2[nH]c3ccc(C(N)=O)cc3c2C1 [FROVATRIPTAN] | 0 | No-Dili-Concern
C[C@]12CC[C@@H]3c4ccc(O)cc4C[C@@H](CCCCCCCCC[S+]([O-])CCCC(F)(F)C(F)(F)F)[C@H]3[C@@H]1CC[C@@H]2O (stereo partly drawn) [FULVESTRANT] | 7 | Ambiguous-Dili-Concern
NCC1(CC(=O)O)CCCCC1 [GABAPENTIN] | 3 | Less-Dili-Concern
COc1ccc2c3c1O[C@H]1C[C@@H](O)C=C[C@@]31CCN(C)C2 [GALANTAMINE] | 3 | Ambiguous-Dili-Concern
Nc1nc(O)c2ncn(COC(CO)CO)c2n1 [GANCICLOVIR] | 7 | Ambiguous-Dili-Concern
CC(=O)O.CC(=O)O.CC/N=C(\NCC)NCCCC[C@H](NC(=O)[C@H](CC(C)C)NC(=O)[C@@H](CCCCN/C(=N/CC)NCC)NC(=O)[C@H](Cc1ccc(O)cc1)NC(=O)[C@H](CO)NC(=O)[C@@H](Cc1cccnc1)NC(=O)[C@@H](Cc1ccc(Cl)cc1)NC(=O)[C@@H](Cc1ccc2ccccc2c1)NC(C)=O)C(=O)N1CCC[C@H]1C(=O)N[C@H](C)C(N)=O [GANIRELIX ACETATE] (Ac-[d2Nal][dPhe(4-Cl)][d3Pal]SY[d(hArg(Et2))]L[hArg(Et2)]P[dA]-NH2) | 0 | No-Dili-Concern
COc1cc2ncnc(Nc3ccc(F)c(Cl)c3)c2cc1OCCCN1CCOCC1 [GEFITINIB] | 4 | Most-Dili-Concern
Nc1ccn([C@@H]2O[C@H](CO)[C@@H](O)C2(F)F)c(=O)n1 [GEMCITABINE] | 8 | Most-Dili-Concern
Cc1ccc(C)c(OCCCC(C)(C)C(=O)O)c1 [GEMFIBROZIL] | 4 | Most-Dili-Concern
CO/N=C1\CN(c2nc3c(cc2F)c(=O)c(C(=O)O)cn3C2CC2)CC1CN (stereo not drawn) [GEMIFLOXACIN] | 3 | Less-Dili-Concern
O=C(OCC(O)CO)c1ccccc1Nc1ccnc2cc(Cl)ccc12 (stereo not drawn) [GLAFENINE] | 8 | Most-Dili-Concern
CCC1=C(C)CN(C(=O)NCCc2ccc(S(=O)(=O)NC(=O)N[C@H]3CC[C@H](C)CC3)cc2)C1=O [GLIMEPIRIDE] | 7 | Less-Dili-Concern
Cc1cnc(C(=O)NCCc2ccc(S(=O)(=O)NC(=O)NC3CCCCC3)cc2)cn1 [GLIPIZIDE] | 3 | Less-Dili-Concern
NC(=O)CC[C@H](N)C(=O)O [GLUTAMINE] | 3 | Ambiguous-Dili-Concern
COc1ccc(Cl)cc1C(=O)NCCc1ccc(S(=O)(=O)NC(=O)NC2CCCCC2)cc1 [GLYBURIDE] | 3 | Less-Dili-Concern
C[N+]1(C)CCC(OC(=O)C(O)(c2ccccc2)C2CCCC2)C1 (stereo not drawn) [GLYCOPYRRONIUM] | 0 | No-Dili-Concern
CC(C)C[C@H](NC(=O)[C@@H](COC(C)(C)C)NC(=O)[C@H](Cc1ccc(O)cc1)NC(=O)[C@H](CO)NC(=O)[C@H](Cc1c[nH]c2ccccc12)NC(=O)[C@H](Cc1cnc[nH]1)NC(=O)[C@@H]1CCC(=O)N1)C(=O)N[C@@H](CCCNC(=N)N)C(=O)N1CCC[C@H]1C(=O)NNC(N)=O [GOSERELIN] | 3 | Ambiguous-Dili-Concern
CN1C2CCCC1CC(NC(=O)c1nn(C)c3ccccc13)C2 (stereo not drawn) [GRANISETRON] | 3 | Ambiguous-Dili-Concern
COC1=CC(=O)C[C@@H](C)[C@]12Oc1c(Cl)c(OC)cc(OC)c1C2=O [GRISEOFULVIN] | 8 | Most-Dili-Concern

Structure (SMILES) | DILI_severity_class (Homo sapiens [1]) | DILI_Concern (Homo sapiens [2])
COc1ccccc1OCC(O)CO (stereo not drawn) [GUAIFENESIN] | 0 | No-Dili-Concern
N=C(N)NCCN1CCCCCCC1 [GUANETHIDINE] | 0 | No-Dili-Concern
N=C(N)NC(=O)Cc1c(Cl)cccc1Cl [GUANFACINE] | 3 | Ambiguous-Dili-Concern
N=C(N)N [GUANIDINE] | 3 | Ambiguous-Dili-Concern
CCCCCCCCCC(=O)OC1(c2ccc(Cl)cc2)CCN(CCCC(=O)c2ccc(F)cc2)CC1 [HALOPERIDOL DECANOATE] | 3 | Ambiguous-Dili-Concern
O=C(CCCN1CCC(O)(c2ccc(Cl)cc2)CC1)c1ccc(F)cc1 [HALOPERIDOL] | 5 | Less-Dili-Concern
NCCc1c[nH]cn1.O=P(O)(O)O.O=P(O)(O)O [HISTAMINE PHOSPHATE] | 0 | No-Dili-Concern
CC(=O)O.CCNC(=O)[C@@H]1CCCN1C(=O)[C@H](CCCNC(=N)N)NC(=O)[C@H](CC(C)C)NC(=O)[C@@H](Cc1cn(Cc2ccccc2)cn1)NC(=O)[C@H](Cc1ccc(O)cc1)NC(=O)[C@H](CO)NC(=O)[C@H](Cc1c[nH]c2ccccc12)NC(=O)[C@H](Cc1cnc[nH]1)NC(=O)[C@@H]1CCC(=O)N1 [HISTRELIN ACETATE] | 3 | Ambiguous-Dili-Concern
NNc1nncc2ccccc12 [HYDRALAZINE] | 3 | Less-Dili-Concern
NS(=O)(=O)c1cc2c(cc1Cl)NCNS2(=O)=O [HYDROCHLOROTHIAZIDE] | 2 | Less-Dili-Concern
C[C@]12CCC(=O)C=C1CC[C@@H]1[C@@H]2[C@@H](O)C[C@@]2(C)[C@H]1CC[C@]2(O)C(=O)CO [HYDROCORTISONE] | 0 | No-Dili-Concern
NS(=O)(=O)c1cc2c(cc1C(F)(F)F)NCNS2(=O)=O [HYDROFLUMETHIAZIDE] | 2 | Ambiguous-Dili-Concern
CN1CC[C@]23c4c5ccc(O)c4O[C@H]2C(=O)CC[C@H]3[C@H]1C5 [HYDROMORPHONE] | 3 | Ambiguous-Dili-Concern
CCN(CCO)CCCC(C)Nc1ccnc2cc(Cl)ccc12 (stereo not drawn) [HYDROXYCHLOROQUINE] | 7 | Less-Dili-Concern
CCCCCC(=O)O[C@]1(C(C)=O)CC[C@H]2[C@@H]3CCC4=CC(=O)CC[C@]4(C)[C@H]3CC[C@@]21C [HYDROXYPROGESTERONE CAPROATE] | 2 | Ambiguous-Dili-Concern
NC(=O)NO [HYDROXYUREA] | 8 | Most-Dili-Concern
OCCOCCN1CCN(C(c2ccccc2)c2ccc(Cl)cc2)CC1 (stereo not drawn) [HYDROXYZINE] | 0 | No-Dili-Concern
CCCCCN(C)CCC(O)(P(=O)(O)O)P(=O)(O)O [IBANDRONIC ACID] | 0 | No-Dili-Concern
CC(C)Cc1ccc(CC(=O)O)cc1 [IBUFENAC] | 8 | Most-Dili-Concern
CC(C)Cc1ccc(C(C)C(=O)O)cc1 (stereo not drawn) [IBUPROFEN] | 3 | Less-Dili-Concern
CCCCCCCN(CC)CCCC(O)c1ccc(NS(C)(=O)=O)cc1 (stereo not drawn) [IBUTILIDE] | 0 | No-Dili-Concern
CC(=O)[C@]1(O)Cc2c(O)c3c(c(O)c2[C@@H](O[C@H]2C[C@H](N)[C@H](O)[C@H](C)O2)C1)C(=O)c1ccccc1C3=O [IDARUBICIN] | 3 | Ambiguous-Dili-Concern
O=P1(NCCCl)OCCCN1CCCl (stereo not drawn) [IFOSFAMIDE] | 4 | Less-Dili-Concern
COc1cc(C(C)=O)ccc1OCCCN1CCC(c2noc3cc(F)ccc23)CC1 [ILOPERIDONE] | 2 | Ambiguous-Dili-Concern
Cc1ccc(NC(=O)c2ccc(CN3CCN(C)CC3)cc2)cc1Nc1nccc(-c2cccnc2)n1 [IMATINIB] | 8 | Most-Dili-Concern
Nc1cc(-c2ccncc2)c[nH]c1=O [INAMRINONE] | 5 | Ambiguous-Dili-Concern
CC1Cc2ccccc2N1NC(=O)c1ccc(Cl)c(S(N)(=O)=O)c1 (stereo not drawn) [INDAPAMIDE] | 5 | Ambiguous-Dili-Concern
